Measurements published in patent US20110124742A1, “COMPOSITION AND METHOD OF ADIPOSE CELL DIFFERENTIATION INHIBITION” (NATIONAL YANG-MING UNIVERSITY, priority 2008, published 2011).

Legend:
Assay type in all cases: cell-based
3T3-L1 adipose cell [1] = test: 3T3-L1 adipose cell differentiation assay, triglyceride content per unit protein; conditions: day 9, control 0.1% DMSO
Protocol: In the present invention, 3T3-L1 fibroblast cell is purchased from Bioresource collection and research center. Medium for 3T3-L1 fibroblast cell culture contains 10% (v/v) FBS, Dulbecco's modified Eagle's high-glucose medium containing 1% (v/v) penicillin (10000 U/ml) and streptomycin (10 mg/ml). Cell culture is performed in 37 C, 10% CO2 incubators. Subculture is performed at 80-90% cell confluence. After cell reaches 100% confluence, differentiation solution is used for differentiation. The complete differentiation takes 9 days. Differentiation solution contains 0.5 mM IBMX, 10 μg/ml insulin, 0.5 μM dexamethasone in 10% FBS DMEM. Two or three days after 3T3-L1 fibroblast cell reaching 100% confluence (day 0), the original 10% FBS DMEM is removed and differentiation solution is added. Replace cell culture medium at day 3 and day 6 with 10% FBS DMEM containing 10 μg/ml insulin. Harvest cells at day 9 of differentiation for cell morphology observation (Juan, C. C.; Chang, C. L.; Lai, Y. H.; Ho, L. T., Endothelin-1 induces lipolysis in 3T3-L1 adipocytes. Am. J. Physiol. Endocrinol. Metab. 2005, 288, E1146-52).
Mature 3T3-L1 adipose cell stores energy in the form of triglyceride of cell's oil drop. In order to study if plant essential oil is able to inhibit lipid accumulation in 3T3-L1 pre-adipose cell, we use cellular accumulated triglyceride content as an indicator of adipose cell differentiation. The examination method is as follows. Remove 3T3-L1 cell culture medium, wash cell with PBS for three times. Add protein lysis buffer (50 mM Tris-HCl, 150 mM NaCl, 0.5% sodium deoxycholate, 1% NP-40, 0.1% SDS) containing 10-fold diluted protease inhibitor into each well. Transfer mixture of scraped cells and buffer into microcentrifuge tube. Take 5 μl of homogenized cell mixture and 250 μl of reagent for reaction. The reaction is complete at room temperature in 1 hour, and then detects OD550 nm. Use OD value to calculate triglyceride concentration from a Merck multi-system calibrator generated standard curve. Determine triglyceride and protein concentration in each well, and the division of these two values (mg TG/mg protein) represents triglyceride content per unit protein in the cell. […]
Dilute Acorus essential oil (density 1.10 g/ml) to 25, 62.5, and 125 mg/ml with DMSO. Until cell growth reaches post confluence (day 0), diluted Acorus essential oil solution is added into differentiation solution in 1:1000 dilution into cell (final concentration is 25, 62.5, and 125 μg/ml). While replacing growth medium containing insulin at day 3 and day 6, replenish each concentration of Acorus essential oil in culture medium as well as the ones adding 0.1% DMSO as controls. The analysis at day 9 discovered that 25 μg/ml Acorus essential oil reduces triglyceride content per cell unit protein to 77% relative to its control. Acorus essential oil at 62.5 and 125 μg/ml essential oil reduces it to 55% and 20% relative to its control (FIG. 2a).
Ten ml of Acorus essential oil dissolved in hexane (5 ml essential oil and 5 ml hexane) is loaded into prepacked silica gel glass column and eluted by hydrophobicity (Table 2). Essential oil can be separated into 5 portions based on each component's hydrophobicity. Remove elution solvent by lypholizer, dissolve each component in 2 ml DMSO or methanol, and store it in glass vial. 3T3-L1 is used as a cell model, we add various fractions in DMSO or methanol at concentration of 50 μg/ml into cell differentiation medium and growth medium. At day 9 of complete differentiation, analyze triglyceride content per cell unit protein. […] Therefore, the second fraction has been chosen for further analysis.
After identifying the second fraction of Acorus essential oil as α-asarone and β-asarone, we further examine the effect of these two compounds on adipose cell differentiation inhibition. We dissolve α-asarone and β-asarone in DMSO to make concentration of 0.015, 0.03, 0.06, 0.13, and 0.25 M solution. […]

3T3-L1 adipose cell [2] = test: MTT assay, cell viability of 3T3-L1 adipose cell; conditions: 0.25 mM (maximal amount)
3T3-L1 adipose cell [3] = test: Oil red staining of 3T3-L1 adipose cell; conditions: 0.03, 0.06, 0.13, 0.25 mM, day 9
Protocol: Acorus essential oil inhibition effect on cell differentiation can be visualized under microscope by oil red staining. It is performed as follows. Dissolve 0.03 g of Oil red O in 10 ml of isopropylalcohol as stock solution. Mix 2.4 ml of stock solution and 1.6 ml of PBS and filter it before staining. Remove medium from cells, add appropriate amount of filtered staining solution for 15 minutes, wash cell three times with PBS for 5 minutes each, and then add 4% paraformaldehyde for 15 minutes to fix cells, repeat wash step by PBS. Add 0.1% Triton X-100 for 30 seconds, and repeat wash step by PBS. Add appropriate amount of hematoxylin for 30 seconds followed by one last wash step by PBS. Observe the image under a microscope and record the image.

PPARγ [4] = test: PPARγ mRNA expression by RT-PCR in 3T3-L1 cell; conditions: 3 days, GAPDH internal control
Protocol: (§1) RNA extraction: Remove 3T3-L1 cell medium directly from 10 cm petri dish, add 1 ml of Trizol reagent, and scrape off cells. Transfer cell and reagent mixture into a microcentrifuge tube. Add 200 μl chloroform in each tube and vortex for 15 seconds until it is clouded. Leave it on ice for 2-3 minutes at 4 C, spin it at 12000 rpm for 20 minutes. Transfer supernatant to another microcentrifuge tube, add equal amount of isopropylalcohol, mix and leave it on ice for 10 minutes. Spin it at 12000 rpm for 10 minutes at 4 C. After centrifugation, remove supernatant and save RNA pellet in the bottom. Add 75% cold ethanol, spin it at 7500 rpm for 10 minutes at 4 C. Remove ethanol after centrifugation and air dry the pellet until the edge is clear. Add appropriate amount of DEPC H2O to dissolve RNA pellet, and determine RNA concentration by OD260/OD280 nm with a spectrophotometer.
(§2) RT-PCR: Take 2 μg of RNA for reverse transcription reaction. Mix RNA, DEPC H2O and 0.25 μg random primer to make total volume of 12 μl. Keep it at 70 C for 10 minutes, and then leave it on ice. Add 4 μl of 5× first-strand buffer, 2 μl of 0.1 M dithiothreitol, 1 μl of 10 mM dNTP and 1 μl of SuperScript™ II reverse transcriptase 200 U/μl. Keep it at 42 C for 1.5 hours, and then heat it at 70 C for 15 minutes to stop reverse transcription. Take 1 μl of cDNA from reverse transcription, mix with 5 μl of 10×PCR buffer, 1 μl of 10 mM dNTP, 2 μl of primer, 40.5 μl of sterile water, and 0.5 μl of Taq DNA polymerase (1 U/μl) for PCR reaction. The SEQ ID NO: 1 to SEQ ID NO: 6 is listed from the top to bottom accordingly. PCR program is listed as follows: 95 C/5 min; 25˜30 cycles of 95 C/1 min, 55 C/1 min, 72 C/1 min; 72 C/10 min, and stop reaction at 4 C.
(§3) Because PPARγ and C/EBPα are early marker genes during adipose cell differentiation, these genes have been analyzed from cells harvested after 3 days of β-asarone addition. […]

C/EBPα [5] = test: C/EBPα mRNA expression by RT-PCR in 3T3-L1 cell; conditions: 3 days, GAPDH internal control
Protocol: as §1, §2, §3

PPARγ [6] = test: PPARγ protein expression by western blot in 3T3-L1 cell; conditions: 3 days, α-tubulin internal control
Protocol: (§4) Western blot analysis: Prepare 12% SDS-PAGE as follows. Recipe of separating gel contains 2.5 ml of 1.5 M Tris-HCl pH 8.8, 100 μl of 10% SDS, 3 ml of acrylamide/bis (37.5:1; 40%), 4.35 ml RO water, 50 μl of 10% ammonium persulfate, and 5 μl of TEMED. Recipe of stacking gel contains 1.25 ml of 0.5 M Tris-HCl pH 6.8, 50 μl of 10% SDS, 0.065 ml of acrylamide/bis (37.5:1; 40%), 3.05 ml of RO water, 25 μl of APS and 5 μl of TEMED. Load same amount of protein in each well, and electrophoresis is performed under 100V for 2 hours. Prepare transfer buffer (10 mM CAPS-NaOH, 10% methanol, pH 11.0), and use methanol to rinse PVDF transfer membrane. After electrophoresis is complete, remove SDS-PAGE gel, cover the gel and PVDF membrane with transfer buffer rinsed 3 MM paper. Put it into transfer tank full of transfer buffer, electrophoresis under 500 mA for 1 hour. Take transfer membrane out, block it with 5% skim milk in TBST (20 mM Tris, 137 mM NaCl, 0.01% Tween-20), and wash it with TBST briefly. Add primary antibody for 2-hour reaction, wash membrane with TBST for three times, 15 minutes each. Add appropriate amount of secondary antibody for 1 hour, wash membrane with TBST for three times, 15 minutes each. In the end, evenly cover ECL on the transfer membrane, place membrane in the film cassette, and expose it to X-ray film. Develop the film for analysis.
(§5) Analyze cells of β-asarone supplement for 3 days by western analysis. The expression of PPARγ from cells treated with β-asarone at concentration of 0.03, 0.06, and 0.13 mM is 97%, 117%, and 111% relative to its normal differentiated control with no significant difference. When β-asarone reaches 0.25 mM, the expression of PPARγ reduces to 45% relative to its control (FIG. 12). In terms of another differentiation marker gene C/EBPα, the expression of C/EBPα treated with β-asarone at concentrations of 0.03 and 0.06 mM is 113% and 77% relative to its control with no statistical difference. However, when β-asarone reaches 0.13 mM and 0.25 mM, the expression of C/EBPα reduces to 43% and 33% relative to its control (FIG. 13).

C/EBPα [7] = test: C/EBPα protein expression by western blot in 3T3-L1 cell; conditions: 3 days, α-tubulin internal control
Protocol: as §4, §5

SMILES	triglyceride content relative to normal differentiation control (3T3-L1 adipose cell [1]; 0.015 mM) [%]	triglyceride content relative to normal differentiation control (3T3-L1 adipose cell [1]; 0.03 mM) [%]	triglyceride content relative to normal differentiation control (3T3-L1 adipose cell [1]; 0.06 mM) [%]	triglyceride content relative to normal differentiation control (3T3-L1 adipose cell [1]; 0.13 mM) [%]	triglyceride content relative to normal differentiation control (3T3-L1 adipose cell [1]; 0.25 mM) [%]	cell viability rate relative to normal differentiated control (3T3-L1 adipose cell [2]) [%]	oil red staining, red oil covered area (3T3-L1 adipose cell [3])	PPARγ mRNA expression relative to normal differentiated control (PPARγ [4]; 0.03 mM) [%]	PPARγ mRNA expression relative to normal differentiated control (PPARγ [4]; 0.06 mM) [%]	PPARγ mRNA expression relative to normal differentiated control (PPARγ [4]; 0.13 mM) [%]	C/EBPα mRNA expression relative to normal differentiated control (C/EBPα [5]; 0.03 mM) [%]	C/EBPα mRNA expression relative to normal differentiated control (C/EBPα [5]; 0.06 mM) [%]	C/EBPα mRNA expression relative to normal differentiated control (C/EBPα [5]; 0.13 mM) [%]	PPARγ protein expression relative to normal differentiated control (PPARγ [6]; 0.03 mM) [%]	PPARγ protein expression relative to normal differentiated control (PPARγ [6]; 0.06 mM) [%]	PPARγ protein expression relative to normal differentiated control (PPARγ [6]; 0.13 mM) [%]	C/EBPα protein expression relative to its control (C/EBPα [7]; 0.03 mM) [%]	C/EBPα protein expression relative to its control (C/EBPα [7]; 0.06 mM) [%]	C/EBPα protein expression relative to its control (C/EBPα [7]; 0.25 mM) [%]
C/C=C\c1cc(OC)c(OC)cc1OC (single isomer, unassigned) [β-asarone]	101	90	91	66	47	79	red oil covered area is decreasing	96	94	90	99	94	96	97	117	111	113	77	33
C/C=C/c1cc(OC)c(OC)cc1OC (single isomer, unassigned) [α-asarone, reference compound]	107	106	99	104	105	78													
